{"source": "patent US5410024A", "about": "“Human cancer inhibitory pentapeptide amides” (Arizona Board of Regents acting on behalf of Arizona State …, priority 1993, dated 1995)", "key": {"KM20L2": {"test_system": "KM20L2", "assay": "NCI human tumor cell line screen, Colon KM20L2", "type": "cell-based", "details": "minipanel comparison", "description": "(§1) Current research in the control of cancer in the United States is coordinated by the National Cancer Institute (NCI). To determine whether a substance has anti-cancer properties, the NCI has established a systematic protocol. […] The protocol, and the established statistical means for analyzing the results obtained by the standardized testing are fully described in the literature. […] Both of these references are incorporated herein by this reference thereto."}, "[1]": {"test_system": "LOX Human Melanoma Xenograph", "assay": "LOX Human Melanoma Xenograph (Nude Mouse)", "type": "in vivo"}, "SK-MEL-5": {"test_system": "SK-MEL-5", "assay": "NCI human tumor cell line screen, Melanoma SK-MEL-5", "type": "cell-based", "details": "minipanel comparison, column F (key not visible; values match SK-MEL-5)", "description": "as §1"}, "[2]": {"test_system": "L1210 Lymphocytic Leukemia", "assay": "Murine in vivo system, L1210 Lymphocytic Leukemia"}, "A498": {"test_system": "A498", "assay": "NCI human tumor cell line screen, Renal A498", "type": "cell-based", "details": "minipanel comparison, column C (key not visible; values match A498)", "description": "as §1"}, "NCI-H460": {"test_system": "NCI-H460", "assay": "NCI human tumor cell line screen, Lung-NSC NCI-H460", "type": "cell-based", "details": "minipanel comparison, column D (key not visible; values match NCI-H460)", "description": "as §1"}, "SF-295": {"test_system": "SF-295", "assay": "NCI human tumor cell line screen, CNS SF-295", "type": "cell-based", "details": "minipanel comparison, column B (key not visible; values match SF-295)", "description": "as §1"}, "[3]": {"test_system": "OVCAR-3 Human Ovary Xenograph", "assay": "OVCAR-3 Human Ovary Xenograph, Nude Mouse", "type": "in vivo", "details": "OVCAR-3 xenograph, 40 μg/kg"}, "[4]": {"test_system": "P388 Lymphocytic Leukemia", "assay": "Murine in vivo system, P388 Lymphocytic Leukemia"}, "[5]": {"test_system": "MX-1 Human Mammary Xenograft", "assay": "MX-1 Human Mammary Xenograft (Tumor Regression)", "type": "in vivo, Murine"}, "OVCAR-3": {"test_system": "OVCAR-3", "assay": "NCI human tumor cell line screen, Ovarian OVCAR-3", "type": "cell-based", "details": "minipanel comparison, column A (key not visible; values match OVCAR-3)", "description": "as §1"}, "Human Mammary Xenograph": {"test_system": "Human Mammary Xenograph", "assay": "Human Mammary Xenograph, Nude Mouse", "type": "in vivo", "details": "26 μg/kg"}, "B16 Melanoma": {"test_system": "B16 Melanoma", "assay": "Murine in vivo system, B16 Melanoma"}, "M5076 Ovary Sarcoma": {"test_system": "M5076 Ovary Sarcoma", "assay": "Murine in vivo system, M5076 Ovary Sarcoma"}, "[6]": {"details": "LOX in separate experiments, 9.0 μg/kg"}, "[7]": {"details": "LOX in separate experiments, 26 μg/kg"}, "[8]": {"details": "LOX in separate experiments, 43 μg/kg"}}, "data": [{"substance": "Dolastatin 10", "values": [{"measurement": "GI50, minipanel cell line E", "setting": "KM20L2", "result": 0.0047, "unit": "ng/mL"}, {"measurement": "T/C", "setting": "[1]; [6]", "result": 138}, {"measurement": "cures", "setting": "[1]; [6]", "result": 17, "unit": "%"}, {"measurement": "T/C", "setting": "[1]; LOX in separate experiments, 15 μg/kg", "result": 192}, {"measurement": "T/C", "setting": "[1]; [7]", "result": 181}, {"measurement": "cures", "setting": "[1]; [7]", "result": 33, "unit": "%"}, {"measurement": "T/C", "setting": "[1]; [8]", "result": 340}, {"measurement": "cures", "setting": "[1]; [8]", "result": 50, "unit": "%"}, {"measurement": "T/C", "setting": "[1]; LOX, 3.25 μg/kg", "result": 170}, {"measurement": "cures", "setting": "[1]; LOX, 3.25 μg/kg", "result": 17, "unit": "%"}, {"measurement": "cures", "setting": "[1]; LOX, 6.5 μg/kg", "result": 33, "unit": "%"}, {"measurement": "cures", "setting": "[1]; LOX, 13 μg/kg", "result": 50, "unit": "%"}, {"measurement": "cures", "setting": "[1]; LOX, 26 μg/kg", "result": 67, "unit": "%"}, {"measurement": "T/C", "setting": "[1]; LOX, 52 μg/kg", "result": "toxic"}, {"measurement": "GI50, minipanel cell line F", "setting": "SK-MEL-5", "result": 0.0074, "unit": "ng/mL"}, {"measurement": "T/C", "setting": "[2]; L1210, 1.63 μg/kg", "result": 120}, {"measurement": "T/C", "setting": "[2]; L1210, 3.25 μg/kg", "result": 139}, {"measurement": "T/C", "setting": "[2]; L1210, 6.5 μg/kg", "result": 135}, {"measurement": "T/C", "setting": "[2]; L1210, 13 μg/kg", "result": 152}, {"measurement": "GI50, minipanel cell line C", "setting": "A498", "result": 0.026, "unit": "ng/mL"}, {"measurement": "GI50, minipanel cell line D", "setting": "NCI-H460", "result": 0.0034, "unit": "ng/mL"}, {"measurement": "GI50, minipanel cell line B", "setting": "SF-295", "result": "7.6e-05", "unit": "ng/mL"}, {"measurement": "T/C", "setting": "[3]", "result": 300}, {"measurement": "cures", "setting": "[4]; P388, 3.25 μg/kg", "result": 17, "unit": "%"}, {"measurement": "cures", "setting": "[4]; P388, 6.5 μg/kg", "result": 17, "unit": "%"}, {"measurement": "T/C", "setting": "[4]; P388, 13.0 μg/kg", "result": "toxic"}, {"measurement": "T/C (Tumor Regression)", "setting": "[5]; MX-1, 6.25 μg/kg", "result": 69}, {"measurement": "T/C (Tumor Regression)", "setting": "[5]; MX-1, 13 μg/kg", "result": 61}, {"measurement": "T/C (Tumor Regression)", "setting": "[5]; MX-1, 26 μg/kg", "result": 50}, {"measurement": "T/C (Tumor Regression)", "setting": "[5]; MX-1, 52 μg/kg", "result": 14}, {"measurement": "GI50, minipanel cell line A", "setting": "OVCAR-3", "result": 0.00095, "unit": "ng/mL"}, {"measurement": "T/C", "setting": "Human Mammary Xenograph", "result": "Toxic"}, {"measurement": "T/C", "setting": "B16 Melanoma; B16, 1.44 μg/kg", "result": 142}, {"measurement": "T/C", "setting": "B16 Melanoma; B16, 3.4 μg/kg", "result": 171}, {"measurement": "T/C", "setting": "B16 Melanoma; B16, 4.0 μg/kg", "result": 205}, {"measurement": "T/C", "setting": "B16 Melanoma; B16, 6.67 μg/kg", "result": 182}, {"measurement": "T/C", "setting": "B16 Melanoma; B16, 11.11 μg/kg", "result": 238}, {"measurement": "cures", "setting": "B16 Melanoma; B16, 11.11 μg/kg", "result": 40, "unit": "%"}, {"measurement": "T/C", "setting": "M5076 Ovary Sarcoma; M5076, 3.25 μg/kg", "result": 151}, {"measurement": "T/C", "setting": "M5076 Ovary Sarcoma; M5076, 6.5 μg/kg", "result": 142}, {"measurement": "T/C", "setting": "M5076 Ovary Sarcoma; M5076, 13 μg/kg", "result": 166}, {"measurement": "T/C", "setting": "M5076 Ovary Sarcoma; M5076, 26 μg/kg", "result": "toxic"}]}]}
